The source of these data is US20250154607A1, “ISOTHERMAL AMPLIFICATION OF PATHOGENS” (priority 2021, published 2025).

Values after ≈ are worked out from the molar mass of the structure shown. A value given as a limit tells only on which side of the number the result lay.

One data set concerns nasal swab ribonucleases. Kind of data set: Protection of RNA from nasal swab ribonucleases (influenza B RNA APA). Type of data set: biochemical, human. The following applies: nasal swab eluate 4% of swab; 0.2% SDS with or without 10 mM DTT; 2 minutes at 58° C.; then 4% βCD.
Data set [1] addresses T1, RNase A (Bos taurus, UniProt P61823).
T1 sequence (P61823 27-150): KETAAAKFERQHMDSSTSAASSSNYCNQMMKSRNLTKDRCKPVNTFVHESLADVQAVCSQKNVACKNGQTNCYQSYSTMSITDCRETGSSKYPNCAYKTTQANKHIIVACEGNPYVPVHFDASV
As to the kind of experiment: RNase Alert assay of RNase A activity recovery after SDS/DTT pretreatment. The class given is biochemical. Here is the method: 2 ng RNase A was incubated 2 minutes at 58° C. in […] solutions containing either 10 mM DTT+0.2% SDS (+), 0.2% SDS (triangle), 10 mM DTT (square), or neither (solid line) and then the RNase Alert assay was used to study the recovery of any RNase activity upon sequestration of SDS after dissolving lyophilized APA reagents without enzymes but containing RNase Alert substrate and protective agent (4% βCD) with continued incubation and fluorescence data collection at 58° C. In the presence of RNase activity, the RNase alert indicator substrate releases detectable fluorescence. […] FIG. 11A depicts recovery of RNase A activity after identical pretreatment without addition of βCD, in this case monitoring activity in […] of the solution by transfer to an RNase alert “wet” reaction format. […] Thus, as shown here, simultaneous treatment with ionic detergent and reducing agent is required for successful irreversible inactivation under the conditions described herein. […] Without being bound by any particular theory, this may be related to the impact of cyclodextrin and other APA additives on the refolding process. This example also provides further confirmation that the prior art and currently available methods (e.g, employing a reducing agent but no denaturant) are inadequate under these conditions, with an independent, commercially available RNase assay.

For data set [2], the target named is T1, RNase A. As to the kind of experiment: Influenza B virus APA assay with RNase A in ELB (Elution/Lysis Buffer). Type of data set: biochemical. Particulars: RNAse A 10 μg/ml; 2 minutes 58° C. in ELB with 0.2% SDS, without or with 10 mM DTT; β-CD 4% final. As for the experimental part: FIGS. 12A-12B depict data related to RNase A inactivation in an influenza B assay like the one in Example 4, with DTT in ELB (Elution/Lysis Buffer). […] After incubation, lyophilized APA reagents co-incubated 2 minutes 58° C., containing β-CD (4% final) were dissolved with the heated solutions, and FAM fluorescence collected every 15 seconds to monitor APA. […] The inclusion of DTT enables unimpeded operation of this POC influenza detection system in a mock sample containing very high level of purified RNase A ([…]). Moreover, while currently available methods can only achieve irreversible ribonuclease inactivation at a maximum 200 ng/ml, the compositions and methods provided herein show utility with 10 μg/ml to accommodate potentially larger amounts in patient samples.

Data set [3] concerns the target T1, RNase A. Kind of data set: RNaseAlert assay of RNase A inactivation with CTAB and DTT after sequestration by HP-βCD. The class given is biochemical. Particulars: for RNase A inactivation, activity upon sequestration of the detergent: 68° C.; for RNase A activity after CTAB sequestration by 4% HP-βCD: 20 ng RNase A, various temperatures. As for the experimental part: FIG. 7 depicts data related to the effect of DTT on the irreversibility of RNase A inactivation in the presence of CTAB at various temperatures. To simulate authentic reaction conditions, standard APA reaction reagents lacking 9° Nm™ DNA polymerase but containing 4% HP-βCD were prepared in a lyophilized format. The lyophilized reagents also contained the RNaseAlert® assay substrate, a synthetic quenched RNA probe which releases fluorescence in the presence of active RNase A. Reagents were preincubated 2 minutes and dissolved at the indicated temperatures with […] solutions containing 20 ng RNase A ([…]) with (dotted lines) or without (shapes) 10 mM DTT which had also been preincubated at the indicated temperatures on a Bio-Rad CFx thermocycler with programmed temperature gradient.
FIG. 8 depicts data related to effect of DTT and HP-βCD on RNase A inactivation. An RNase Alert assay was used to study the effect of DTT and 0.2% cationic detergent CTAB on RNase inactivation. RNase A was spiked into solutions containing 0.2% CTAB which were then mixed with lyophilized APA reagent pellets lacking enzymes but containing RNase Alert substrate and protective agent (4% HP-0 CD) after preincubation of all solutions at 68° C. followed by fluorescence data collection at 68° C.

The target of data set [4] is T2, 9° Nm™ DNA polymerase (Thermococcus sp., UniProt Q56366, E143D). As to the kind of experiment: APA amplification of Chlamydia trachomatis DNA with CTAB, with or without HP-βCD. The class given is biochemical. As for the experimental part: APA reactions containing CAdNTP and sequence-specific molecular beacon detection probes were performed as above in lyophilized (with HP-βCD; FIG. 3B) or wet reactions (no HP-βCD; FIG. 3A) and various amounts of the cationic detergent CTAB, without (“NTC”) or with the addition of 500 copies of C. trachomatis total cell DNA. Activation of CAdNTP by heating 2 minutes at 90° C. was followed by APA at 68° C. with fluorescence collected every 15 seconds.

For data set [5] the following is noted: cited from earlier work.
Data set [6] concerns the target T1, RNase A. As to the kind of experiment: Requirements for irreversible RNase inactivation (influenza B RNA APA in presence of RNase A). The class given is biochemical. Particulars: 500 ng RNase A (10 μg/ml); additions 0.2% SDS, 10 mM DTT, 0.1% Triton X-100 as labelled; 2 minutes at 58° C.; then 4% βCD.
The subject of the next data set is influenza B RNA. Kind of data set: Reverse-transcription APA detection of influenza B RNA with SDS and lyophilized reagents containing cyclodextrin. Particulars: 0.2% SDS lysis solution, 500 IU influenza B RNA, 4% betaCD in lyophilized reagents. Type of data set: biochemical. As for the experimental part:
APA was performed with lyophilized reagents (including β-cyclodextrin, dNTPs, 35 units reverse transcriptase, KCl, EGTA (or EDTA), Tx-100, Tween 80, poly rA, Tris pH8.4, dextran 40k, 4% betaCD, trehalose, primers, probe, 9° Nml™)
After two minutes at 58° C. (to facilitate reverse transcription) the temperature was raised to 68° C. for APA and fluorescence detection.

In data set [7] the target is T2, 9° Nm™ DNA polymerase. As to the kind of experiment: Order-of-addition assay (APA of S. enterica DNA, SDS and hydroxypropyl β-CD). The class given is biochemical. The following applies: 4% hydroxypropyl β-CD added prior to 0.4% SDS. Here is the method:
Order-of-addition assay: Detection time dependent on cyclodextrin addition prior to brief interaction of enzymes with SDS. Since SDS rapidly and irreversibly inactivated 9° Nm™ DNA polymerase, when the enzyme is instead simultaneously exposed to SDS and β-CD, the kinetics of complexation of the latter two substances must be very rapid, compared with the rate of interaction between SDS and the enzyme.
FIG. 6 depicts data related to detection of S. enterica DNA target (50,000 copies) by APA reactions in a wet “hot-start” format mediated by CleanAmp™ deoxynucleotides (CAdNTP) containing Tris pH7.6, KCl, (NH4)2SO4, MgSO4, Triton X-100, SYBRI, CAdNTP, 9° Nm™ DNA polymerase, with additions of 0.4% SDS (X), 4% hydroxypropyl β-CD (squares), SDS then immediately β-CD (circles), or β-CD then SDS (solid line) with mixing. Control (ctrl dotted line) was no additions. All samples included DNA target. Isothermal APA was at 68° C., collecting intercalating dye fluorescence every 15 seconds to monitor all exponential DNA amplification. […] Negative controls for each condition without S. enterica DNA confirmed specificity of indicated amplification products (not shown).

Data set [8] deals with T2, 9° Nm™ DNA polymerase. As to the kind of experiment: APA amplification of Neisseria gonorrhea DNA with SDS, with or without HPβCD. The class given is biochemical. The following applies: 4% HPβCD, lyophilized reagents, 500 copies N. gonorrhea genomic DNA. Here is the method:
This example provides SDS complexation analyses of the methods and compositions provided herein. […] Anionic detergent SDS at >0.01% is inhibitory to APA amplification of DNA, but the presence of the protective agent hydroxypropyl β-CD (βCD) allowed amplification to proceed despite≤0.2% SDS. The kinetics of hydroxypropyl β-CD sequestration of SDS were thus sufficiently rapid at a molar ratio of 2:1 (˜14 mM: −7 mM) to prevent 9° Nm™ DNA polymerase inactivation by SDS.
Standard APA reactions with or without 4% Sigma 389145 HPβCD containing “hot-start” CleanAmp™ deoxynucleotides (CAdNTP) and a sequence-specific molecular beacon detection probe were performed with lyophilized ((supplemented with dextran 40, Trehalose), FIG. 2B) or “wet” (no HPβCD, FIG. 2A) reagents including Tris pH 8.4, KCl, MgSO4, and (NH4)2SO4 Triton X-100, 9° Nm™ DNA polymerase, CAdNTP, primers and probe. For the lyophilized reactions, samples were prepared in 50 μl solution containing MgSO4, and (NH4)2SO4 with (shapes) or without (dashed) 500 copies of N. gonorrhea genomic DNA. After dried reagents were dissolved with the samples, various amounts of SDS were added, as indicated, and solutions were vortexed. For the wet reactions, 45 μl master mix containing all reaction components was added to 5 μl sample containing 1OX SDS (final concentration as indicated), with and without 500 copies of N. gonorrhea genomic DNA. Activation of CAdNTP by 2 minutes 90° C. was followed by APA at 68° C. for 10 minutes with detection of the NG amplification product by fluorescence collected every 15 seconds.

Data set [9] relates to Chlamydia trachomatis elementary bodies. Kind of data set: Lysis of Chlamydia trachomatis elementary bodies, read out by APA. The following applies: APA reaction mix containing 4% cyclodextrin HP-βCD. Here is the method:
Elementary body lysis (˜40/reaction) was probed in this example using an APA-based assay. Elementary bodies (Acrometrix) were added to either cold chlamydia transport media (SPD containing sucrose, phosphate buffer, and glutamic acid), TE (Tris-EDTA 10-1), or lysis buffer containing 0.4% SDS, pH 2.2. The samples in TE or SDS were heated 5 minutes at 95° C. (heat lysis) or 2 minutes at 78° C. (SDS lysis), respectively. Then 5 μl (containing 40 elementary bodies) was added to “wet” APA reaction mix as above (pH 7.6 to facilitate isothermal CAdNTP activation) containing 4% cyclodextrin HP-βCD for isothermal APA (68° C.) with fluorescence from a chlamydia-specific molecular beacon collected every 15 seconds.

T2 sequence (Q56366 whole entry E143D): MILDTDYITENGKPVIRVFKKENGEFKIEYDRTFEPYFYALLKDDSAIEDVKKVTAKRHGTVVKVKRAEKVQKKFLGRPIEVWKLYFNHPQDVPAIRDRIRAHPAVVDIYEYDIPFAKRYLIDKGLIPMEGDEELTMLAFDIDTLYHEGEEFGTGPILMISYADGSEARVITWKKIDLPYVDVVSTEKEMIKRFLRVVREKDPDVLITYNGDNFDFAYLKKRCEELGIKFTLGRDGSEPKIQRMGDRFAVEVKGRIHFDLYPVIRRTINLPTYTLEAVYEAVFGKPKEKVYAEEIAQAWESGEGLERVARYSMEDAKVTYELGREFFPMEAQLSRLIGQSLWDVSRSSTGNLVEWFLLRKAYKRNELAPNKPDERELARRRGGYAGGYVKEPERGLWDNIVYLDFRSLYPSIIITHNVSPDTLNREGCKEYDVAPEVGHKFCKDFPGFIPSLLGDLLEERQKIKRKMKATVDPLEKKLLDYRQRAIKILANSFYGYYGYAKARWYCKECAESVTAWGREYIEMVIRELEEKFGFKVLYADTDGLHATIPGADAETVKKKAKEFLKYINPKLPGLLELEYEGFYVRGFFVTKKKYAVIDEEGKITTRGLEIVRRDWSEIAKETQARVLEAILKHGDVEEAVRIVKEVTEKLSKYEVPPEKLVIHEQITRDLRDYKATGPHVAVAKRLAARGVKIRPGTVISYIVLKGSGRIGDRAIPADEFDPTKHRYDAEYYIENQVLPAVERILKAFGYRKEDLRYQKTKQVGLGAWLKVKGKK

As for `O[C@H](CS)[C@H](O)CS` (racemic) [DTT, dithiothreitol], in the data set on nasal swab ribonucleases, the “Influenza B RNA detection after nasal swab eluate pretreatment and SDS sequestration” value was “restored detection”. Besides, on RNase A [1] (2 ng RNase A, 2 minutes at 58° C., 10 mM DTT and/or 0.2% SDS, then 4% βCD), the “Recovery of RNase A activity after pretreatment, with βCD” value is reported as “virtually full recovery of enzyme activity”. In addition, at RNase A [1] (10 mM DTT alone, wet RNase alert format), the “Recovery of RNase A activity after pretreatment, without addition of βCD” value is listed as “did not impact recovery of RNase A activity”. The “Influenza B virus APA performance in presence of RNAse A” value on RNase A [2] was “performance equivalent to a no RNAse A control”. Moreover, the “RNase A inactivation, activity upon sequestration of the detergent” value on RNase A [3] (0.2% CTAB with 10 mM DTT, 4% HP-βCD) was “effectively irreversibly inactivated”. Further, the “RNase A activity after CTAB sequestration by 4% HP-βCD” value at RNase A [3] (with 10 mM DTT) was “no restored activity was detected”.

On to `CCCCCCCCCCCCCCCC[N+](C)(C)C.[Br-]` [CTAB, cetyltrimethylammonium bromide], for which the “RNase A inactivation, activity upon sequestration of the detergent” value on RNase A [3] (0.2% CTAB only, RNase A 10 μg/ml and 1 μg/ml) is given as “activity was rapidly restored”. The “RNase A activity after CTAB sequestration by 4% HP-βCD” value on RNase A [3] (without DTT) is “immediate reversibility”. Further, on 9° Nm™ DNA polymerase [4] (absence of HP-βCD, 500 copies C. trachomatis total cell DNA), the “CTAB concentration giving complete inactivation of APA” value is more than 0.01%.

For `OC[C@H]1O[C@@H]2O[C@H]3[C@H](O)[C@@H](O)[C@@H](O[C@H]4[C@H](O)[C@@H](O)[C@@H](O[C@H]5[C@H](O)[C@@H](O)[C@@H](O[C@H]6[C@H](O)[C@@H](O)[C@@H](O[C@H]7[C@H](O)[C@@H](O)[C@@H](O[C@H]1[C@H](O)[C@H]2O)O[C@@H]7CO)O[C@@H]6CO)O[C@@H]5CO)O[C@@H]4CO)O[C@@H]3CO` [α-Cyclodextrin], the water solubility in [5] is 50 mg/mL (≈ 51.4 mM).

Turning to Triton X-100, the “Influenza B RNA detection by APA after RNase A pretreatment” value at RNase A [6] was “no RNA detection”.

In the case of hydroxypropyl-β-cyclodextrin [HP-βCD], the “Restoration of assay performance in the presence of SDS” value in the data set with influenza B RNA is recorded as “virtually complete restoration of assay performance”. Besides, the “Effect on APA amplification” value on 9° Nm™ DNA polymerase [7] is “restoring detection time, although with reduced plateau”. Also, the “SDS concentration tolerated by APA amplification in presence of the protective agent” value at 9° Nm™ DNA polymerase [8] is given as “at least 0.2%”; on 9° Nm™ DNA polymerase [8] (listed as hydroxypropyl β-CD), not above 0.2%. Further, the “CTAB concentration completely tolerated by APA in presence of the protectant” value on 9° Nm™ DNA polymerase [4] (with HP-βCD, lyophilized reactions) was “at least 0.2%”. In data set [9], the “Impact of persisting 0.4% ionic detergent on 9° Nm™ DNA polymerase-mediated amplification” value is recorded as “had no impact”.
